Among the test systems are A498; BT-549; CAKI-1; CCRF-CEM; DU-145; HCC 2998; HCT-15; IGROV-1; M14; NCI-H226; NCI-H460; OVCAR-4; OVCAR-5; SK-MEL-5; SN12C; SNB-19; SR; SW-620; UACC-257; UO-31.
What all share (test): inhibition of tumour cell growth, NCI panel, 48 h

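48-hour exposure; five concentrations; linearly interpolated endpoints. Here, GI50 denotes the concentration required for 50% inhibition of growth.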 Active and inactive are the calls of the source. Rule as the data show it: active = GI50 up to about 1.1 µM and inactive = higher. A value given as a limit tells only on which side of the number the result lay.

Take `CCOC(=O)C1(Cc2ccc(C)cc2)Cc2ccc(C)cc2C1=O` (stereo not given): the GI50 with A498 is 23.5 µM (inactive); in the assay on BT-549, 10 µM (inactive); with CAKI-1 it was 19.5 µM (inactive); with CCRF-CEM, 8.05 µM (inactive); with DU-145 it was 41.4 µM (inactive); in the assay on HCC 2998 it was 16.8 µM (inactive). Moreover, the GI50 in the assay on HCT-15 is 7.85 µM; in the assay on IGROV-1, 21.1 µM (inactive); with M14 it was 9.59 µM (inactive); with NCI-H226, 35.2 µM (inactive); in the assay on NCI-H460, 27.9 µM (inactive); in the assay on OVCAR-4 it was 36.4 µM (inactive). The GI50 in the assay on OVCAR-5 was 52.5 µM (inactive); in the assay with SK-MEL-5, 6.4 µM (inactive); with SN12C it was 14.9 µM (inactive); with SNB-19 it was 36.6 µM (inactive); in the assay with SR, 3.61 µM (inactive); with SW-620, 4.71 µM (inactive). Also, the GI50 with UACC-257 was 18.9 µM (inactive); in the assay on UO-31, 38.5 µM (inactive).

As to `CC[C@@]1(O)C(=O)OCc2c1cc1n(c2=O)Cc2c-1nc1ccccc1c2Cl`, the GI50 was 0.0237 µM (active) with A498; < 0.0136 µM (active) in the assay with BT-549; < 0.01 µM (active) in the assay with CAKI-1; < 0.01 µM (active) with CCRF-CEM; < 0.01 µM (active) with DU-145; 0.521 µM (active) in the assay on HCC 2998. In addition, the GI50 in the assay with HCT-15 was 0.267 µM; in the assay on IGROV-1, 0.211 µM (active); in the assay with M14, < 0.0133 µM (active); in the assay on NCI-H226 it was < 0.01 µM (active); in the assay on NCI-H460, < 0.01 µM (active); in the assay with OVCAR-4 it was 0.56 µM (active). The GI50 is 0.0811 µM (active) with OVCAR-5; < 0.0141 µM (active) in the assay on SK-MEL-5; < 0.01 µM (active) in the assay with SN12C; < 0.0107 µM (active) in the assay with SNB-19; < 0.01 µM (active) in the assay on SR; 0.0348 µM (active) in the assay with SW-620. In addition, the figures for the GI50 in the assay with UACC-257 and with UO-31 were 0.112 µM (active) and < 0.01 µM (active), respectively.

As to `Cc1cc(S(=O)(=O)N2CCNNC2=O)c(S)cc1Cl`, the GI50 is > 100 µM (inactive) in the assay on A498; 20.8 µM (inactive) in the assay with BT-549; 33.5 µM (inactive) with CAKI-1; 37 µM (inactive) with CCRF-CEM; > 100 µM (inactive) in the assay with DU-145; > 100 µM (inactive) in the assay on HCC 2998. Further, the GI50 with HCT-15 is 56.5 µM; with IGROV-1, 87.9 µM (inactive); in the assay on M14, 41.6 µM (inactive); with NCI-H226 it was > 100 µM (inactive); with NCI-H460 it was > 100 µM (inactive); with OVCAR-4, > 100 µM (inactive). Moreover, the GI50 was > 100 µM (inactive) with OVCAR-5; > 100 µM (inactive) in the assay on SK-MEL-5; > 100 µM (inactive) in the assay with SN12C; > 100 µM (inactive) in the assay with SNB-19; > 100 µM (inactive) with SR; 36.9 µM (inactive) in the assay on SW-620. In addition, the GI50 with UACC-257 and in the assay with UO-31 was > 100 µM (inactive) in each case.

Take `CN(C)CCCN1c2ccccc2CCc2ccc([N+](=O)[O-])cc21`: the GI50 with A498 was 17.7 µM (inactive); in the assay on BT-549 it was 27.9 µM (inactive); in the assay on CAKI-1 it was 40.6 µM (inactive); in the assay with CCRF-CEM it was 39.2 µM (inactive); in the assay on DU-145 it was 18.4 µM (inactive); in the assay on HCC 2998, 13.9 µM (inactive). Also, the GI50 in the assay on HCT-15 is 26.9 µM; in the assay on IGROV-1 it was 14.9 µM (inactive); in the assay with M14, 15.4 µM (inactive); with NCI-H226 it was 26.2 µM (inactive); in the assay on NCI-H460, 19.5 µM (inactive); in the assay on OVCAR-4, 35.5 µM (inactive). The GI50 in the assay with OVCAR-5 is 27.9 µM (inactive); with SK-MEL-5, 15.8 µM (inactive); in the assay on SN12C, 22.8 µM (inactive); with SNB-19 it was 45.1 µM (inactive); in the assay with SR, 25.9 µM (inactive); in the assay on SW-620, 38.5 µM (inactive). Moreover, the results for the GI50 in the assay on UACC-257 and in the assay with UO-31 were 16.3 µM (inactive) and 16 µM (inactive), respectively.

For `O=[N+]([O-])c1c(Br)cc(Br)c2c1Nc1c(ccc(Cl)c1Cl)S2`, the GI50 is 21.1 µM (inactive) with A498; 2.88 µM (inactive) with BT-549; 16.5 µM (inactive) with CAKI-1; 2.39 µM (inactive) with CCRF-CEM; 14.1 µM (inactive) with DU-145; 12.4 µM (inactive) in the assay on HCC 2998. The GI50 is 16.9 µM in the assay on HCT-15; 14.9 µM (inactive) with IGROV-1; 11.4 µM (inactive) in the assay with M14; 5.96 µM (inactive) in the assay on NCI-H226; 17.8 µM (inactive) with NCI-H460; 13.9 µM (inactive) with OVCAR-4. Also, the GI50 in the assay on OVCAR-5 was 17.9 µM (inactive); with SK-MEL-5, 13.6 µM (inactive); in the assay with SN12C, 13.8 µM (inactive); in the assay with SNB-19, 18.3 µM (inactive); in the assay with SR it was 5.86 µM (inactive); in the assay with SW-620 it was 7.14 µM (inactive). Moreover, the GI50 in the assay with UACC-257 was 8.49 µM (inactive); in the assay on UO-31, 7.91 µM (inactive).

As to `CCOC(=O)C1=C(C)C(C(=O)OC)/C(=C/c2cccc3cccnc23)C1=O` (stereo not given), the GI50 in the assay with A498, in the assay on BT-549, in the assay on CAKI-1, in the assay on CCRF-CEM, with DU-145 and in the assay on HCC 2998 was > 10 µM (inactive) each time. Also, the GI50 in the assay with HCT-15 is greater than 10 µM; with IGROV-1, > 10 µM (inactive); with M14 it was > 10 µM (inactive); with NCI-H226, > 10 µM (inactive); in the assay on NCI-H460 it was > 10 µM (inactive); in the assay on OVCAR-4, > 10 µM (inactive). Further, the GI50 with OVCAR-5, with SK-MEL-5, in the assay on SN12C, in the assay on SNB-19, in the assay on SR and in the assay on SW-620 was > 10 µM (inactive) throughout. The GI50 with UACC-257 and in the assay with UO-31 was > 10 µM (inactive) in each case.

On to `c1ccc(C/C(=N\Nc2nc3ccccc3o2)c2ccccn2)cc1`, for which the GI50 was 0.369 µM (active) in the assay on A498; 0.342 µM (active) in the assay with BT-549; 0.0879 µM (active) in the assay on CAKI-1; < 0.0122 µM (active) with CCRF-CEM; 0.376 µM (active) with DU-145; < 0.0163 µM (active) with HCC 2998. For the same compound, the GI50 with HCT-15 was 0.0252 µM; in the assay with IGROV-1, 0.0643 µM (active); in the assay on M14, 0.0382 µM (active); in the assay with NCI-H226, < 0.0483 µM (active); with NCI-H460, 0.0931 µM (active); with OVCAR-4, < 0.01 µM (active). Also, the GI50 in the assay on OVCAR-5 is < 0.01 µM (active); with SK-MEL-5, 0.0769 µM (active); with SN12C, 0.0569 µM (active); in the assay with SNB-19, 0.2 µM (active); in the assay with SR, 0.0424 µM (active); with SW-620, < 0.013 µM (active). Further, the GI50 was 0.0775 µM (active) in the assay with UACC-257 and 0.09 µM (active) in the assay on UO-31.

The values are drawn from ChEMBL document CHEMBL1201862, “PubChem BioAssay data set” (2004).
